# Data as given in ChEMBL document CHEMBL5550101, “Inhibition of cancer cells by Quinoline-Based compounds: A review with mechanistic insights” (Bioorg Med Chem, 2024).
# Key:
# MCF7 [1] = experiment: Cytotoxicity against human MCF7 cells assessed as reduction in cell growth measured for 48 hrs by SRB assay; assay type: functional, cell-based; details: MCF7, 48 h
# [2] = target: Epidermal growth factor receptor (Homo sapiens, UniProt P00533); experiment: Inhibition of EGFR (unknown origin)
# [3] = target: Platelet-derived growth factor receptor beta (Homo sapiens, UniProt P09619); experiment: Inhibition of PDGFRbeta (unknown origin)
# Chain of Platelet-derived growth factor receptor beta (P09619 whole entry): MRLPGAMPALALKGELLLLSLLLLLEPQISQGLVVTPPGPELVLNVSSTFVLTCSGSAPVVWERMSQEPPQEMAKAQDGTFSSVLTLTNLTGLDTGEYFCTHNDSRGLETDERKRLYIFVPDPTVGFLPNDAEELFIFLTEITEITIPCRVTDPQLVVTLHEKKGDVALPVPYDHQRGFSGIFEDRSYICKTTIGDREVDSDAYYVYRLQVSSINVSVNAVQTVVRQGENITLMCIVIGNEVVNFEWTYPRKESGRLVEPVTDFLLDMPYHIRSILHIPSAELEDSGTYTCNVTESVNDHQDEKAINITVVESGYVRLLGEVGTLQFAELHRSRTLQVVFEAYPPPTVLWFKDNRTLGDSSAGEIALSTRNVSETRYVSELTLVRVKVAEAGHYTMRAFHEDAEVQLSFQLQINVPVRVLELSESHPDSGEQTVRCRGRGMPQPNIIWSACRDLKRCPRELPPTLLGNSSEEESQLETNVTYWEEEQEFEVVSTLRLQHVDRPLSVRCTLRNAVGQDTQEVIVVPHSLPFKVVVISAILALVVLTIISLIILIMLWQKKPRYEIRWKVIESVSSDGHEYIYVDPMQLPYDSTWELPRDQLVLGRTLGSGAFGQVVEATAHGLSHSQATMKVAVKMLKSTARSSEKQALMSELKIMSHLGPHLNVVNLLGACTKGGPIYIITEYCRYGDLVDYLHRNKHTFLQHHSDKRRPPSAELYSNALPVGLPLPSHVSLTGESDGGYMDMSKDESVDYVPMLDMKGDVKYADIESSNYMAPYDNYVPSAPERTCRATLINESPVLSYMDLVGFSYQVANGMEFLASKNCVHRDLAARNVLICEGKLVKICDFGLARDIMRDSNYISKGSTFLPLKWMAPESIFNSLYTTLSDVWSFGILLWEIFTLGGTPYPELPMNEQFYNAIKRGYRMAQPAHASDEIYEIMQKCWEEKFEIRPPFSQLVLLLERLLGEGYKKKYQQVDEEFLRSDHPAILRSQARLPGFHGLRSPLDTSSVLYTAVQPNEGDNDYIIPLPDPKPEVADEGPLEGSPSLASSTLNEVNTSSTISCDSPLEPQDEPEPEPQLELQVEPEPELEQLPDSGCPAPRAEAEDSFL
# A549 [4] = experiment: Antiproliferative activity against human A549 cells assessed as reduction in cell growth incubated for 48 hrs by MTT assay; assay type: functional, cell-based; details: A549, 48 h
# MCF7 [5] = experiment: Antiproliferative activity against human MCF7 cells assessed as reduction in cell growth incubated for 48 hrs by SRB assay; assay type: functional, cell-based; details: MCF7, 48 h
# MCF7 [6] = experiment: Cytotoxicity against human MCF7 cells assessed as reduction in cell growth incubated for 72 hrs by SRB assay; assay type: functional, cell-based; details: MCF7, 72 h
# A498 = experiment: Cytotoxicity against human A498 cells assessed as cell growth inhibition by measuring lethal concentration by SRB assay; assay type: functional
# A549 [7] = experiment: Cytotoxicity against human A549 cells assessed as cell growth inhibition by measuring lethal concentration by SRB assay; assay type: functional; details: read-out: LC50 (the source's name)
# SR = experiment: Cytotoxicity against human SR cells assessed as cell growth inhibition by measuring lethal concentration by SRB assay; assay type: functional; details: read-out: LC50 (the source's name)
# OVCAR-3 = experiment: Cytotoxicity against human OVCAR-3 cells assessed as cell growth inhibition by measuring lethal concentration by SRB assay; assay type: functional
# HCT-116 = experiment: Cytotoxicity against human HCT-116 cells assessed as cell growth inhibition by measuring lethal concentration by SRB assay; assay type: functional
# M14 = experiment: Cytotoxicity against human M14 cells assessed as cell growth inhibition by measuring lethal concentration by SRB assay; assay type: functional
# PC-3 = experiment: Cytotoxicity against human PC-3 cells assessed as cell growth inhibition by measuring lethal concentration by SRB assay; assay type: functional; details: read-out: LC50 (the source's name)
# MCF7 [8] = experiment: Cytotoxicity against human MCF7 cells assessed as cell growth inhibition by measuring lethal concentration by SRB assay; assay type: functional
# [9] = target: Hepatocyte growth factor receptor (Homo sapiens, UniProt P08581); experiment: Inhibition of c-Met (unknown origin) by mobility shift assay
# Chain of Hepatocyte growth factor receptor (P08581 whole entry): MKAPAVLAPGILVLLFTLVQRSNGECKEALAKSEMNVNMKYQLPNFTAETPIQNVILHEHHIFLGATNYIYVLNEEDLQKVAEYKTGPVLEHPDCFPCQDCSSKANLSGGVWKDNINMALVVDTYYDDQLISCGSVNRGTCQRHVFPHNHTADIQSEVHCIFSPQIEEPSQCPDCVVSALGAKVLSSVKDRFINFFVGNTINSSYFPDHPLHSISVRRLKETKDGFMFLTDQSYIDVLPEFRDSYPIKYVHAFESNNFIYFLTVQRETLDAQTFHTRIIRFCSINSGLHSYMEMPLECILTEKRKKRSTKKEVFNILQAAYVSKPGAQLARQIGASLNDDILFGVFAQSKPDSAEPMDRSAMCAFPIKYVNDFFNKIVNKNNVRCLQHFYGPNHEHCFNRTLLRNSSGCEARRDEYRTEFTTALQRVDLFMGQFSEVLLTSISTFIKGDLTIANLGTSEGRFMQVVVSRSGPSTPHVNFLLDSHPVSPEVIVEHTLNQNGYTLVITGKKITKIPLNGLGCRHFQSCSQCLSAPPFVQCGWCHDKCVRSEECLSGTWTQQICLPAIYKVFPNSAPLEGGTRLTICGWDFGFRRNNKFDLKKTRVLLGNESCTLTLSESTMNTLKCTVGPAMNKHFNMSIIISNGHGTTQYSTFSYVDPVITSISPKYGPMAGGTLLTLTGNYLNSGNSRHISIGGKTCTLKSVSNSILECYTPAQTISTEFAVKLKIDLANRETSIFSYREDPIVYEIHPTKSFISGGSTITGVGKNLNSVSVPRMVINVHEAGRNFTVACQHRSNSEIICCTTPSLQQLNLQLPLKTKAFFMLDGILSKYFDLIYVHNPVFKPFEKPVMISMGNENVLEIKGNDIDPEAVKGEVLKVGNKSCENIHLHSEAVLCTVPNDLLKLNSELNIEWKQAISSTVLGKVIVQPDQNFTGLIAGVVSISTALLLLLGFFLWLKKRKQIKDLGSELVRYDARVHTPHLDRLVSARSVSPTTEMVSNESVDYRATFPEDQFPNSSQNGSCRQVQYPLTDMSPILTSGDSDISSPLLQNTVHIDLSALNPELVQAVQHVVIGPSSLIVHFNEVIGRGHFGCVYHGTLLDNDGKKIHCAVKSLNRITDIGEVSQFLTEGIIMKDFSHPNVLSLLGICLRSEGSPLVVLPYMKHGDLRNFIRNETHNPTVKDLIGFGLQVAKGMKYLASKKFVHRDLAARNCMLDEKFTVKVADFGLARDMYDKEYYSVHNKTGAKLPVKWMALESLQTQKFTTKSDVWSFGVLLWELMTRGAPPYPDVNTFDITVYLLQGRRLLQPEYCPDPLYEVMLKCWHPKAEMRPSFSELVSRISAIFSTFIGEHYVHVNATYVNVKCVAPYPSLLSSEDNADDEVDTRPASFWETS
# Chain of Epidermal growth factor receptor (P00533 whole entry): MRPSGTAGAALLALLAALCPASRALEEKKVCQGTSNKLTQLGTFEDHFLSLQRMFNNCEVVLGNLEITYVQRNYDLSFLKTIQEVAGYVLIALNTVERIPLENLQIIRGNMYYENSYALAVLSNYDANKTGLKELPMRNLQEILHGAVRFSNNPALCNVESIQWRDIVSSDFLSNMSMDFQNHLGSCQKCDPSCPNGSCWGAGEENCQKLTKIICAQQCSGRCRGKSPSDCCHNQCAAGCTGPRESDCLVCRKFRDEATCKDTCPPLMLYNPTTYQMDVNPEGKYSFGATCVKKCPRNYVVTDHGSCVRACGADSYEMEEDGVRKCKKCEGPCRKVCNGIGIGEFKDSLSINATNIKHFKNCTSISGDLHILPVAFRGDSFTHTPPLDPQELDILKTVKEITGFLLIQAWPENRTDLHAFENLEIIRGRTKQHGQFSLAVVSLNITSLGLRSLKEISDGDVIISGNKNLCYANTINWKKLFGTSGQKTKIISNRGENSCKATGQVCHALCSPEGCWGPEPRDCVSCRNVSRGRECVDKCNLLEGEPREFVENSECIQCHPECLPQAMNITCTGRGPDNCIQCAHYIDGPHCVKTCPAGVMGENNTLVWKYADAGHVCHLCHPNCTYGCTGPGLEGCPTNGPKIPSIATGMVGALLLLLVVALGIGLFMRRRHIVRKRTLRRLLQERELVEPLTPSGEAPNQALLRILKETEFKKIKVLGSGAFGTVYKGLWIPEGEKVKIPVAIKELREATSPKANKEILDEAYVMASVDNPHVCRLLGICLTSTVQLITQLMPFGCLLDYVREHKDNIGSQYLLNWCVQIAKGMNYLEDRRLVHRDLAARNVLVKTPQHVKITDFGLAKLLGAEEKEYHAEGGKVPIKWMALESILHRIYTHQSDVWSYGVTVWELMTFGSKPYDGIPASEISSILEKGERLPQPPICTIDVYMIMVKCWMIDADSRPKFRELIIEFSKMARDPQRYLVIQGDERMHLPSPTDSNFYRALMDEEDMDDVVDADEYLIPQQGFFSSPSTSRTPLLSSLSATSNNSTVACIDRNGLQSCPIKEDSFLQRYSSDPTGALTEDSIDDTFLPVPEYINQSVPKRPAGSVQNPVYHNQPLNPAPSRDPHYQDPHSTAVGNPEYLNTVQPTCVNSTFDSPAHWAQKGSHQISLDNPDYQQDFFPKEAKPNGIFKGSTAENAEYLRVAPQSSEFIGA
structure (smiles),measurement,setting,value
COc1ccc2c(c1)CCc1c-2[nH]c(=O)c(C#N)c1-c1ccc(OC)c(OC)c1,IC50,MCF7 [1],13.7 µM
same,IC50,[2],0.13 µM
CCCOc1ccc(/C=N/Nc2ccnc3ccc(Br)cc23)cc1,IC50,[3],1.83 µM
O=C(Cc1ccc(Br)cc1)Nc1ccc2c(c1)CCCN2C(=O)c1ccc(Cl)cc1,IC50,A549 [4],0.65 µM
O=C(Nc1ccc2c(c1)CCCN2C(=O)c1ccc(Cl)cc1)c1cc(C(F)(F)F)cc(C(F)(F)F)c1,IC50,A549 [4],3.2 µM
CCCCOc1ccc(/C=N/Nc2ccnc3ccc(Br)cc23)cc1,IC50,[3],2.2 µM
CN1c2ccc(F)cc2SC1C(=O)Nc1cccc2c1N(Cc1ccc(OC3CCNCC3)cc1)CCC2 (stereo not drawn),IC50,[3],1.13 µM
COc1ccc2nc(Cl)cc(C3CC(c4ccc(C)cc4)=NN3c3nc(-c4ccc(Cl)cc4)cs3)c2c1 (stereo not drawn),IC50,MCF7 [5],1.18 µM
N#Cc1c(-c2ccc3ncc(C(N)=O)c(Nc4cccc(Br)c4)c3c2)csc1N,IC50,MCF7 [6],50.6 µM
CCCCOc1ccc(/C=N/Nc2cc(C)nc3ccc(Br)cc23)cc1,LC50,A498,5.47 µM
same,CC50,A549 [7],6.61 µM
same,CC50,SR,> 100 µM
same,LC50,OVCAR-3,7.18 µM
same,LC50,HCT-116,6.17 µM
same,LC50,M14,5.88 µM
same,CC50,PC-3,6.49 µM
same,LC50,MCF7 [8],7.37 µM
COc1ccc2nc(Cl)cc(C3CC(c4ccc(C)cc4)=NN3c3nc(C)c(C(=O)Nc4ccccc4)s3)c2c1 (stereo not drawn),IC50,MCF7 [5],0.36 µM
Cc1ccc(Nc2c(C(N)=O)cnc3ccc(C(=O)/C=C/c4ccc(-c5ccc(Cl)cc5)o4)cc23)cc1,IC50,MCF7 [6],3.35 µM
COc1ccc(-c2c3c([nH]c(=O)c2C#N)-c2ccc(OC)cc2CC3)cc1,IC50,MCF7 [1],18.1 µM
same,IC50,[2],0.13 µM
COc1ccc2c(c1)CCc1c-2nc(N)c(C#N)c1-c1ccc(OC)c(OC)c1,IC50,MCF7 [1],14.5 µM
same,IC50,[2],0.13 µM
CCCCCOc1ccc(/C=N/Nc2cc(C)nc3ccc(Cl)cc23)cc1,LC50,A498,5.13 µM
same,CC50,A549 [7],6.52 µM
same,CC50,SR,4.2 µM
same,LC50,OVCAR-3,6.51 µM
same,LC50,HCT-116,5.02 µM
same,LC50,M14,5.91 µM
same,CC50,PC-3,5.98 µM
same,LC50,MCF7 [8],7.04 µM
O=C(Cc1ccccc1)Nc1ccc2c(c1)CCCN2C(=O)c1ccc(Cl)cc1,IC50,A549 [4],0.97 µM
COc1ccc2c(c1)CCc1c-2[nH]c(=O)c(C#N)c1-c1ccc(OC)cc1OC,IC50,MCF7 [1],7.21 µM
same,IC50,[2],0.13 µM
COc1ccc(-c2c(C#N)c(N)nc3c2CCc2cc(OC)ccc2-3)cc1,IC50,MCF7 [1],12 µM
CCCCOc1ccc(/C=N/Nc2ccnc3ccc(Cl)cc23)cc1,IC50,[3],1.76 µM
CCc1[nH]nc(NC(=O)Cc2ccc(Oc3ccnc4cc(OC)ccc34)cc2OC)c1C,IC50,[9],0.003 µM
CCCCCCOc1ccc(/C=N/Nc2cc(C)nc3ccc(Br)cc23)cc1,LC50,A498,6.03 µM
same,CC50,A549 [7],6.61 µM
same,CC50,SR,> 100 µM
same,LC50,OVCAR-3,6.85 µM
same,LC50,HCT-116,4.67 µM
same,LC50,M14,6.67 µM
same,CC50,PC-3,5.84 µM
same,LC50,MCF7 [8],6.84 µM
COc1ccc2nc(Cl)cc(C3CC(c4ccc(C)cc4)=NN3c3nc(C)c(NNc4ccccc4)s3)c2c1 (stereo not drawn),IC50,MCF7 [5],0.41 µM
CCOc1ccc(/C=N/Nc2cc(C)nc3ccc(Cl)cc23)cc1,LC50,A498,7.01 µM
same,CC50,A549 [7],6.94 µM
same,CC50,SR,15.5 µM
same,LC50,OVCAR-3,6.36 µM
same,LC50,M14,5.55 µM
same,CC50,PC-3,6.54 µM
same,LC50,MCF7 [8],6.6 µM
CCCCCOc1ccc(/C=N/Nc2cc(C)nc3ccc(Br)cc23)cc1,LC50,A498,6.02 µM
same,CC50,A549 [7],7.15 µM
same,CC50,SR,21.3 µM
same,LC50,OVCAR-3,5.92 µM
same,LC50,HCT-116,6.35 µM
same,LC50,M14,6.64 µM
same,CC50,PC-3,5.88 µM
same,LC50,MCF7 [8],7.93 µM
CCCCCCOc1ccc(/C=N/Nc2cc(C)nc3ccc(Cl)cc23)cc1,LC50,A498,6.55 µM
same,CC50,A549 [7],7.22 µM
same,CC50,SR,8.11 µM
same,LC50,OVCAR-3,6.83 µM
same,LC50,M14,6.26 µM
same,CC50,PC-3,5.83 µM
same,LC50,MCF7 [8],6.97 µM
CCCCOc1ccc(/C=N/Nc2cc(C)nc3ccc(Cl)cc23)cc1,LC50,A498,5.67 µM
same,CC50,A549 [7],6.35 µM
same,CC50,SR,> 100 µM
same,LC50,OVCAR-3,7.04 µM
same,LC50,HCT-116,> 100 µM
same,LC50,M14,8.07 µM
same,CC50,PC-3,6.55 µM
same,LC50,MCF7 [8],6.87 µM
O=C(Cc1ccc([N+](=O)[O-])cc1)Nc1ccc2c(c1)CCCN2C(=O)c1ccc(Cl)cc1,IC50,A549 [4],0.06 µM
CC(=O)c1ccc2ncc(C(N)=O)c(Nc3ccc(OCc4ccccc4)cc3)c2c1,IC50,MCF7 [6],10.8 µM
COc1ccc(-c2cc3cc(OC)ccc3nc2Nc2ccc(NC(=O)CN3CCN(C)CC3)cc2)cc1,IC50,[3],5 µM
CCCOc1ccc(/C=N/Nc2cc(C)nc3ccc(Cl)cc23)cc1,LC50,A498,5.79 µM
same,CC50,A549 [7],6.49 µM
same,CC50,SR,38.6 µM
same,LC50,OVCAR-3,6.44 µM
same,LC50,HCT-116,6.48 µM
same,LC50,M14,6.17 µM
same,CC50,PC-3,6.39 µM
same,LC50,MCF7 [8],6.9 µM
CCN(C(=O)c1cc(C(C)C)c(O)cc1O)c1cnc2ccccc2c1,IC50,[9],0.17 µM
COc1ccc2c(Oc3ccc(CC(=O)Nc4cn(C)nc4C)c(OC)c3)ccnc2c1,IC50,[9],0.004 µM
COc1ccc(-c2cc3ccc(OC)cc3nc2Nc2ccc(NC(=O)CN3CCN(C)CC3)cc2)cc1,IC50,[3],5 µM
COc1ccc2nc(O)c(C3CC(c4ccc(C)cc4)=NN3C(C)=O)cc2c1 (stereo not drawn),IC50,MCF7 [5],0.21 µM
CCOc1ccc(/C=N/Nc2ccnc3ccc(Br)cc23)cc1,IC50,[3],1.86 µM
COc1ccc2nc(Cl)cc(C3CC(c4ccc(C)cc4)=NN3c3nc(-c4ccccc4)cs3)c2c1 (stereo not drawn),IC50,MCF7 [5],0.21 µM
CCOC(=O)c1sc(N2N=C(c3ccc(C)cc3)CC2c2cc(Cl)nc3ccc(OC)cc23)nc1C (stereo not drawn),IC50,MCF7 [5],0.32 µM
CCOC(=O)C(=O)Nc1ccc2c(c1)CCCN2C(=O)c1ccc(Cl)cc1,IC50,A549 [4],0.15 µM
COc1ccc2c(c1)CCc1c-2nc(N)c(C#N)c1-c1ccc(OC)cc1OC,IC50,MCF7 [1],17.6 µM
same,IC50,[2],0.13 µM
Nc1ccc(CC(=O)Nc2ccc3c(c2)CCCN3C(=O)c2ccc(Cl)cc2)cc1,IC50,A549 [4],0.22 µM
